{
  "source": "patent US20260276626A1",
  "about": "“METHOD FOR SCREENING THERAPEUTIC AGENT FOR MUSCLE WEAKNESS-RELATED DISEASES” (ENCELL CO., LTD., priority 2023, published 2026)",
  "format_in_all_cases": "cell-based, mouse",
  "key": {"[1]": {"test_system": "Atrogin-1", "assay": "Atrogin-1 mRNA expression level in myotubes (qPCR)", "conditions": "40 μM", "description": "(§1) The C2C12 mouse myoblast cell line was cultured in a culture medium containing 90% DMEM/HG, 10% fetal bovine serum (FBS), and 100 unit/ml penicillin/streptomycin at 37° C. under 5% CO2 condition.\n(§2) 100,000 cells were seeded in 6-well plate. After 4 days, the medium was replaced with a differentiation medium containing 5% horse serum and 100 unit/ml penicillin/streptomycin, and 95% DMEM/HG for differentiation into myotubes at 100% confluence. Here, the date on which the culture medium was replaced with the differentiation medium was designated as day 0, and the differentiation medium was replaced with fresh differentiation medium every day from day 3 to day 5.\n(§3) The medium was removed on day 5 to induce muscle atrophy and/or muscle loss, and the culture medium was treated with mitomycin C (hereinafter referred to as MMC) at concentrations of 20 μM, 40 μM, and 100 μM for 24 hours, respectively. An optical microscopic observation was used to identify changes that occurred during the process of muscle atrophy and/or muscle loss. […]\n(§4) RNA was extracted from the cells using AccuPrep®Universal RNA Extraction Kit (Bioneer). CDNA was synthesized using SuperScript™ IV Reverse Transcriptase purchased from Invitrogen, and quantitative real-time polymerase chain reaction (qPCR) was performed using PowerSYBR green PCR Master Mix from Applied biosystem to confirm the mRNA expression level. […]"}, "[2]": {"test_system": "MuRF-1", "assay": "MuRF-1 mRNA expression level in myotubes (qPCR)", "conditions": "40 μM", "description": "as §1, §2, §3, §4"}, "[3]": {"test_system": "C2C12 myotubes", "assay": "Morphological changes in myotubes by optical microscopic observation", "description": "as §1, §2\nas §3, with “loss. After a predetermined period of time, the medium was removed, and the cells were treated with 0.25% trypsin-ethylene diamine tetra-acetic acid (EDTA, Gibco), and the cells were collected in a culture medium, followed by centrifugation at 1,500 rpm for 3 minutes.” for “loss.”"}, "[4]": {"conditions": "C2C12 myotubes, 24 hours, compared with 20 μM, dexamethasone 100 μM and control (FIG. 5)"}, "[5]": {"conditions": "serum-free medium, 24 hours (FIG. 7)"}},
  "data": [
    {"smiles": "CO[C@@]12[C@H](COC(N)=O)C3=C(C(=O)C(C)=C(N)C3=O)N1C[C@@H]1N[C@@H]12", "note": "[mitomycin C]", "values": [
      {"measurement": "mRNA expression level of Atrogin-1", "setting": "[1]; [4]", "value": "the highest"},
      {"measurement": "mRNA expression level of Atrogin-1", "setting": "[1]; [5]", "value": "maintained in an increased state"},
      {"measurement": "mRNA expression level of MuRF-1", "setting": "[2]; [4]", "value": "the highest"},
      {"measurement": "mRNA expression level of MuRF-1", "setting": "[2]; [5]", "value": "maintained in an increased state"},
      {"measurement": "thickness, length, and number of myotubes", "setting": "[3]; C2C12 myotubes, 40 μM or less, 24-hour treatment, vs untreated control (FIG. 4)", "value": "significantly reduced"},
      {"measurement": "thickness, length, and number of myotubes", "setting": "[3]; serum-free medium, 40 μM, 24 hours (FIG. 6)", "value": "significant decrease"}
    ]}
  ]
}
